Laboratory results published in ChEMBL document CHEMBL1201862, “PubChem BioAssay data set” (2004).
One block for each compound: values may come before it. Active and inactive are the calls of the source.

What was measured:
[1] = cAMP pathway inhibition in counterscreen cell line – TR-FRET cAMP detection, counter-screen for MC4R biased antagonist project, dose response (AID 602305); assay type: functional, cell-based;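 note: U2OS cells stimulated with forskolin near its EC80 as the cAMP inducer; potency is for inhibition of forskolin-stimulated cAMP signaling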
Melanocortin receptor 4 = Melanocortin receptor 4 (Homo sapiens, UniProt P32245); experiment: inhibitors of MC4R cAMP signaling – cell-based, TR-FRET, biased antagonists, dose response (AID 602298); assay type: functional;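 note: antagonist potency against agonist-stimulated cAMP production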
Caspase-3 = biological target: T1, Caspase-3 (Homo sapiens, UniProt P42574); experiment: inhibition of recombinant caspase-3 activity – biochemical, luminescence, set 2, selectivity assay for SENP protease inhibitor project, SAR follow-up (AID 588599); assay type: functional
T1 sequence (P42574 whole entry): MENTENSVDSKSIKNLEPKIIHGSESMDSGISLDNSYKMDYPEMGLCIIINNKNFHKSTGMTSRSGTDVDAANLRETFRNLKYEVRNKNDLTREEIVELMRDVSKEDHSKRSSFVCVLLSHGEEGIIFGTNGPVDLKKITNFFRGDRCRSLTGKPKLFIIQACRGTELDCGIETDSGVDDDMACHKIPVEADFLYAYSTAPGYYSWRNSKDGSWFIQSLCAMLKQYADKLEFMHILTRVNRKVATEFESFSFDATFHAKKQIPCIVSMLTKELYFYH

[2] = biological target: T2, Sentrin-specific protease 7 (Homo sapiens, UniProt Q9BQF6); experiment: inhibition of human SENP7 cleavage activity – biochemical, luminescence, set 2, SAR follow-up (AID 588600); assay type: functional
T2 sequence (Q9BQF6 whole entry): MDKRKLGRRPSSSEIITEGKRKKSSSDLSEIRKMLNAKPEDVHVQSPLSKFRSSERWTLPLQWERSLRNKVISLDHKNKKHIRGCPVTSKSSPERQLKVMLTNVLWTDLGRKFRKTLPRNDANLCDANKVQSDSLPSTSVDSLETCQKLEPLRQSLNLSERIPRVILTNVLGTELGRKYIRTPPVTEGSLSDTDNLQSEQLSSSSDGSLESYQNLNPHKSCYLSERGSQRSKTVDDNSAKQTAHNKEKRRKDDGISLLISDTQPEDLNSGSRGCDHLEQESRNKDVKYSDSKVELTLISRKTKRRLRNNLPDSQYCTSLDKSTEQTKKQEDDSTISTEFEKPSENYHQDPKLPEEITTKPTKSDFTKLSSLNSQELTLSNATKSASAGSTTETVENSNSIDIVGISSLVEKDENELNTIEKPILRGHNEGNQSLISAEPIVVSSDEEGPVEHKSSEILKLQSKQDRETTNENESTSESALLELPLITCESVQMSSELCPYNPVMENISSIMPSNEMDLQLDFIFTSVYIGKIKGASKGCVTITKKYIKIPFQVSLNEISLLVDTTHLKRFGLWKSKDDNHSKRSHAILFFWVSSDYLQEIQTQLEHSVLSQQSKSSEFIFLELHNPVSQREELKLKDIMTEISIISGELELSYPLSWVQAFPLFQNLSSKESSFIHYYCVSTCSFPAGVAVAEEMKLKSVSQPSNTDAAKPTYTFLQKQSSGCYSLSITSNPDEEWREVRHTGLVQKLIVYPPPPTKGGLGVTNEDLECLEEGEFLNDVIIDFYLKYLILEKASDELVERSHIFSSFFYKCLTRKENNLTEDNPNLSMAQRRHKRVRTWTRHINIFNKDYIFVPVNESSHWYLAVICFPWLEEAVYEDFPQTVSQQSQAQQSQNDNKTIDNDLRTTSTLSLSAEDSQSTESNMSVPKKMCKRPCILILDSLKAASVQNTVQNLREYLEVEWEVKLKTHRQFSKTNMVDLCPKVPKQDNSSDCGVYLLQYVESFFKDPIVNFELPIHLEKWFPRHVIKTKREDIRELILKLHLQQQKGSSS

[3] = biological target: T3, Sentrin-specific protease 6 (Homo sapiens, UniProt Q9GZR1); experiment: inhibition of human SENP6 catalytic domain – biochemical, luminescence, set 2, SAR follow-up (AID 588598); assay type: functional
T3 sequence (Q9GZR1 whole entry): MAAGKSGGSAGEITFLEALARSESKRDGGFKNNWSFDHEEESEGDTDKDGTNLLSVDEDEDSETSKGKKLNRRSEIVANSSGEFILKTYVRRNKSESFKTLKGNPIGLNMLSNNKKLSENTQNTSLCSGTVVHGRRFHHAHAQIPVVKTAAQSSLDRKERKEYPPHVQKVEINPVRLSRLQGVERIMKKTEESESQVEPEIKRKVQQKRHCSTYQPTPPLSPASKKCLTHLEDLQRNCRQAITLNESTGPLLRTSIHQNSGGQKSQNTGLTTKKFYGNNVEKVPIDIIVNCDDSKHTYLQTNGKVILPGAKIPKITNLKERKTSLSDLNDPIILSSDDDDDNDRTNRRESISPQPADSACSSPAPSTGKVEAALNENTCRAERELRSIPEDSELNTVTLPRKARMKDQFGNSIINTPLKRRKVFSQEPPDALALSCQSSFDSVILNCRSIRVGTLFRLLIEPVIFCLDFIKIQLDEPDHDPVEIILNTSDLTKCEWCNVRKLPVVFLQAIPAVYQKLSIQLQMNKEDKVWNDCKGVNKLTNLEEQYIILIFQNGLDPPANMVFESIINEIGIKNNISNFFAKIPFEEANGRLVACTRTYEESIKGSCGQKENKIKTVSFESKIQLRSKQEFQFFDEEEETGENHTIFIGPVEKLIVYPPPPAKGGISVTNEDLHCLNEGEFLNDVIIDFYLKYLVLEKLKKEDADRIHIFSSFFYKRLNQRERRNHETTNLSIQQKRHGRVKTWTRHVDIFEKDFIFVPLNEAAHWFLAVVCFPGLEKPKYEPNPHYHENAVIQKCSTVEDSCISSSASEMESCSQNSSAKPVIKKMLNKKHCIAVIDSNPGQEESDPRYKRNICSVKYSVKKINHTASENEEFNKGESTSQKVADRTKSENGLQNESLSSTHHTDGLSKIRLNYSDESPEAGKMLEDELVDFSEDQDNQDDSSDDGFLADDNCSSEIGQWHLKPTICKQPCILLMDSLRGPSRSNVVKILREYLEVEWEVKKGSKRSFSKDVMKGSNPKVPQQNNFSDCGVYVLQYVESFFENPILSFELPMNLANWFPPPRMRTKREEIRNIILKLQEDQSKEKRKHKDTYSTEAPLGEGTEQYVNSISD

[4] = biological target: T4, Sentrin-specific protease 8 (Homo sapiens, UniProt Q96LD8); experiment: inhibition of sentrin protease 8 – biochemical, luminescence, set 2, SAR follow-up (AID 588601); assay type: functional
T4 sequence (Q96LD8 whole entry): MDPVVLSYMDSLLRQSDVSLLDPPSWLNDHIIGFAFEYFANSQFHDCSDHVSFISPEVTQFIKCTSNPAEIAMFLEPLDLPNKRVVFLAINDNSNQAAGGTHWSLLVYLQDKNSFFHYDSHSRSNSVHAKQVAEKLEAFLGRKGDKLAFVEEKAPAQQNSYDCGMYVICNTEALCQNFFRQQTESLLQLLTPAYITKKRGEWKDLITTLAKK

HEK293 [5] = experiment: SAR Analysis of small molecule inhibitors of both B-cell and T-cell specific antigen receptor-induced NF-kB activation in a HEK-293T cell line using a luminescence assay. [Related pubchem assays (depositor defined):AID435003, AID435022, AID465, AID489019, AID489029]; assay type: functional, cell-based; details: Homo sapiens
Jurkat = experiment: SAR Analysis of small molecule inhibitors of both B-cell and T-cell specific antigen receptor-induced NF-kB activation in a Jurkat cell line using a luminescence assay. [Related pubchem assays (depositor defined):AID435003, AID435022, AID465, AID489029]; assay type: functional, cell-based; details: Homo sapiens
HEK293 [6] = experiment: HEK293T cell viability loss, resazurin readout – resazurin fluorescence, cytotoxicity control for NF-kB activator project, SAR follow-up (AID 493251); assay type: functional, cell-based; details: Homo sapiens
Candida albicans [7] = experiment: resistant Candida growth with fluconazole co-treatment – CaCi-8 strain, Alamar Blue, dry powder, set 3, dose response (AID 488905); assay type: functional, organism-based
Candida albicans [8] = experiment: Candida growth inhibition combined with fluconazole – CaCi-2 strain, Alamar Blue, dry powder, set 3, dose response (AID 488907); assay type: functional, organism-based

Chain of Melanocortin receptor 4 (P32245 whole entry): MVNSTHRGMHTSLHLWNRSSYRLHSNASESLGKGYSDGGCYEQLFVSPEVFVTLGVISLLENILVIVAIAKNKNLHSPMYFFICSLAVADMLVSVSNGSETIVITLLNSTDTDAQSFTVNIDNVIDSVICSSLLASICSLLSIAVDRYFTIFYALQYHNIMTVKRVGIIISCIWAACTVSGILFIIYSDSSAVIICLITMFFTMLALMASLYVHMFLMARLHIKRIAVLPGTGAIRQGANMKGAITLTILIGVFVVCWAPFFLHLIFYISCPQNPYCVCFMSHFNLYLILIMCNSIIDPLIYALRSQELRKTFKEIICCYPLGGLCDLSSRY

Compound: CC(=O)Oc1ccc2nc(-c3ccc(Br)o3)oc(=O)c2c1
- IC50 [1]: > 64.6 µM (inactive)
- IC50 (Melanocortin receptor 4): > 64.6 µM (inactive)

- IC50 (Caspase-3): > 99 µM (inactive)
- IC50 [2]: > 99 µM (inactive)
- IC50 [3]: > 99 µM (inactive)
Compound: CN(C(=O)c1cccc(Br)c1)c1nc2ccccc2s1
- IC50 [4]: > 99 µM (inactive)

Compound: COc1cc(NS(=O)(=O)c2ccccc2)c2ncccc2c1
- IC50 (HEK293 [5]): 70.7 µM (inactive)
- IC50 (Jurkat): 1.32 µM (active)
- IC50 (HEK293 [6]): 59.5 µM (inactive)

Compound: Cc1ccc(N2CCN(C(=O)c3ccc(Cl)cc3)CC2)nc1
- AC50 (Candida albicans [7]): 25.4 µM (active)
- AC50 (Candida albicans [8]): 0.413 µM (active)
